Measurements from ChEMBL document CHEMBL1201862, “PubChem BioAssay data set” (2004).
Where a name gives a salt, the structure may show the parent alone. Activity calls are given as the source filed them.

What was measured:
[1] = target: Induced myeloid leukemia cell differentiation protein Mcl-1 (Homo sapiens, UniProt Q07820); assay type: functional
[2] = target: T1, Carboxy-terminal domain RNA polymerase II polypeptide A small phosphatase 1 (Homo sapiens, UniProt Q9GZU7); test: inhibitors of CTDSP1, concentration-response testing, biochemical assay, absorbance-based, actives from ultra-high-throughput screening (AID 540297); assay type: functional
T1 sequence (Q9GZU7 whole entry): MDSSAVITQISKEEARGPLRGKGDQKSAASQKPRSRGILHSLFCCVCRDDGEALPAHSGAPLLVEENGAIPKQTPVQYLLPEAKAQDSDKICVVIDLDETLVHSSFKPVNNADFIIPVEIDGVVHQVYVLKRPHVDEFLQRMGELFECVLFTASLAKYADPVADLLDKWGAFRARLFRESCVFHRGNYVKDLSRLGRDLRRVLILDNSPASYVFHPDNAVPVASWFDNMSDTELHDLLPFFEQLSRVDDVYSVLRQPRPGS

[3] = target: DNA (cytosine-5)-methyltransferase 1 (Homo sapiens, UniProt P26358); test: DNMT1 methyltransferase inhibitors, confirmation, biochemical, fluorescent molecular beacon (AID 602386); assay type: functional
[4] = target: T2, Probable nicotinate-nucleotide adenylyltransferase (Staphylococcus aureus (strain N315), UniProt P65502); assay type: functional, Staphylococcus aureus subsp. aureus N315;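 on IC50 Mean: confirmatory dose-response retesting of NadD inhibitor hits first found in an ultra-high-throughput screen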
[5] = target: T2, Probable nicotinate-nucleotide adenylyltransferase; assay type: functional, Staphylococcus aureus subsp. aureus N315; conditions: read-out: IC50_Mean
[6] = NIH-3T3 fibroblast cytotoxicity, dose response, cytotoxicity control, cell-based, fluorescence, Alamar Blue, secondary assay (AID 2327); assay type: functional;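 further: NIH-3T3 mouse fibroblasts cultured with fluconazole at 8 µg/mL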
[7] = C. albicans growth with fluconazole, confirmation, fluorescence, retest (AID 2467); assay type: functional, cell-based
[8] = target: T3, Mitochondrial peptide methionine sulfoxide reductase (Bos taurus, UniProt P54149); test: Absorbance-based biochemical high throughput dose response assay for activators of Methionine sulfoxide reductase A (MsrA).; assay type: functional
T3 sequence (P54149 whole entry): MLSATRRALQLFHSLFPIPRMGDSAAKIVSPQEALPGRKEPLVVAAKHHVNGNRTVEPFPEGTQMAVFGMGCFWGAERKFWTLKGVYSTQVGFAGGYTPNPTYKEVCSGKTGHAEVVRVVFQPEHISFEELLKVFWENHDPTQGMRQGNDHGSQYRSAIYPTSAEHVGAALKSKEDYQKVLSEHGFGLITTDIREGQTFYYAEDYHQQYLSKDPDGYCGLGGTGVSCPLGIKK

[9] = target: T4, High affinity choline transporter 1 (Homo sapiens, UniProt Q9GZV3); test: CHT inhibitors, dose response, cell-based, 5-point CRC, membrane potential dye (AID 504840); assay type: functional
T4 sequence (Q9GZV3 whole entry): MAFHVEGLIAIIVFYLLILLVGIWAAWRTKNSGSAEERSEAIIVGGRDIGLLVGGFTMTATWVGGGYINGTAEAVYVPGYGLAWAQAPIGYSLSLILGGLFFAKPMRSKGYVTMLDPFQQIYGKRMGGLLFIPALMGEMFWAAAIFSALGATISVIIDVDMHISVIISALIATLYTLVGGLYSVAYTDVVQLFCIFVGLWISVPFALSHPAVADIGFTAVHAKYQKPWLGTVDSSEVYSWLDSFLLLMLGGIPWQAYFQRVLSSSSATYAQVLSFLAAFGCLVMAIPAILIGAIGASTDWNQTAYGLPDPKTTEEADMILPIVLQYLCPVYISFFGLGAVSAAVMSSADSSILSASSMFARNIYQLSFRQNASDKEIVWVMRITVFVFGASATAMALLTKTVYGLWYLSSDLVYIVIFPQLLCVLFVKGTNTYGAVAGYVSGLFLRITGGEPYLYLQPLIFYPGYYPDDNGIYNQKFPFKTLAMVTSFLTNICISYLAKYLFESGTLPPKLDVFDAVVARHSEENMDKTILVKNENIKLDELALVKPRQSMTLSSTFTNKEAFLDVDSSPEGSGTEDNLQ

[10] = target: T4, High affinity choline transporter 1; test: CHT inhibitors, dose response, cell-based, 10-point CRC, membrane potential dye (AID 588401); assay type: functional;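 further: membrane potential dye fluorescence of choline-evoked depolarization via CHT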
[11] = target: T5, Sentrin-specific protease 1 (Homo sapiens, UniProt Q9P0U3); test: potency of human SENP1 inhibitors, dose response, biochemical, kinetic FRET (AID 651697); assay type: functional; conditions: read-out: IC50_Mean
[12] = target: T5, Sentrin-specific protease 1; test: Dose response confirmation of small molecule inhibitors of the catalytic domain of the SUMO protease, SENP1 in a FRET assay.; assay type: functional; conditions: read-out: IC50_Mean
[13] = target: T6, Small ubiquitin-related modifier 1 (Homo sapiens, UniProt P63165); test: inhibitors of SUMO1 peptide binding, dose response, biochemical, fluorescence polarization, uHTS hits (AID 624382); assay type: functional; conditions: read-out: IC50_Mean
[14] = target: T6, Small ubiquitin-related modifier 1; test: inhibitors of SUMO1 partner interactions, dose response, biochemical, FRET (AID 624383); assay type: functional; conditions: read-out: IC50_Mean
[15] = AlphaScreen signal interference compounds, dose response, artefact control for ARNT-TACC3 interaction inhibitor project, biochemical, luminescence, cherry-pick (AID 651705); assay type: functional;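 further: AlphaScreen bead proximity signal that flags compounds interfering with the detection technology; potency reflects signal decrease which marks the compound as an assay artifact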
[16] = target: Nuclear receptor subfamily 5 group A member 2 (Homo sapiens, UniProt O00482); assay type: functional, cell-based;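 further: HEK293T cells transfected with LRH-1 and a StAR promoter luciferase reporter; potency for inhibitors that lower LRH-1 driven reporter light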
Steroidogenic factor 1 = Steroidogenic factor 1 (Homo sapiens, UniProt Q13285); test: Counterscreen for inverse agonists of the liver receptor homolog-1 (LRH-1; NR5A2): Luminescence-based cell-based high throughput dose response assay to identify inverse agonists of the Steroidogenic Factor 1 Nuclear Receptor (SF1; NR5A1).; assay type: functional
[17] = StAR promoter reporter inhibition counter-screen, dose response, counter-screen for LRH-1 inverse agonist project, cell-based, luminescence, luciferase reporter (AID 651969); assay type: functional
[18] = target: Serine/threonine-protein kinase pim-1 (Homo sapiens, UniProt P11309); assay type: functional
[19] = target: Cell division cycle 7-related protein kinase (Homo sapiens, UniProt O00311); assay type: functional;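 further: value obtained from a kinome-wide kinase panel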
[20] = target: Homeodomain-interacting protein kinase 2 (Homo sapiens, UniProt Q9H2X6); assay type: functional;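 further: measured within a kinome-wide kinase profiling panel, HIPK2 being one panel member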
[21] = target: Interleukin-1 receptor-associated kinase 4 (Homo sapiens, UniProt Q9NWZ3); assay type: functional
[22] = target: Glycogen synthase kinase-3 beta (Homo sapiens, UniProt P49841); assay type: functional;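 further: value comes from a broad kinome profiling panel, with GSK3B as the panel member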
[23] = target: cAMP-dependent protein kinase catalytic subunit alpha (Homo sapiens, UniProt P17612); assay type: functional
[24] = target: Dual specificity protein kinase CLK4 (Homo sapiens, UniProt Q9HAZ1); assay type: functional
[25] = target: DNA repair and recombination protein RAD54-like (Homo sapiens, UniProt Q92698); test: inhibitors of human RAD54 branch migration, confirmation, biochemical, fluorescence, cherry-picked samples, dose series (AID 651657); assay type: functional
[26] = target: T7, DNA repair protein RAD52 homolog (Homo sapiens, UniProt P43351); assay type: functional, biochemical
T7 sequence (P43351 whole entry): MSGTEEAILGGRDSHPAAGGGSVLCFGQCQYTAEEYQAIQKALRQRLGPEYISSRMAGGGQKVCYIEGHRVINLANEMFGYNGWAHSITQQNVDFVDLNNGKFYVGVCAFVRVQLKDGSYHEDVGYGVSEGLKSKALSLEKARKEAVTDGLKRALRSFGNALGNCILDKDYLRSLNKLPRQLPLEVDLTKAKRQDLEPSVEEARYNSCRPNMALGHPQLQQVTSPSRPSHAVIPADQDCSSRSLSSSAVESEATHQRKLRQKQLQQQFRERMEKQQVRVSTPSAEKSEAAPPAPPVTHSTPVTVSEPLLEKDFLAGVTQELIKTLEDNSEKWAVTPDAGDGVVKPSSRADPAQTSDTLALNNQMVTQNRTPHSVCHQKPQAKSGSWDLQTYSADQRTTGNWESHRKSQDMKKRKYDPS

[27] = target: T8, Low molecular weight phosphotyrosine protein phosphatase (Homo sapiens, UniProt P24666); assay type: functional; conditions: read-out: IC50_Mean;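 further: Dose-response confirmation assay measuring inhibition of LMPTP enzyme activity by fluorescence intensity read-out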
T8 sequence (P24666 whole entry): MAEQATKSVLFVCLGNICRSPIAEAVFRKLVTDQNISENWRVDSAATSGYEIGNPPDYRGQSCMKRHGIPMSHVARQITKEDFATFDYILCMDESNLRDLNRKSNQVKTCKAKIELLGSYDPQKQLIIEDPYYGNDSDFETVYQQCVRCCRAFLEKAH

[28] = target: T9, Tyrosine-protein phosphatase non-receptor type 22 (Homo sapiens, UniProt Q9Y2R2); test: LYP phosphatase inhibition for selectivity, dose response, selectivity assay for LMPTP inhibitor project, biochemical, fluorescence, LYP catalytic domain (AID 652006); assay type: functional; conditions: read-out: IC50_Mean
T9 sequence (Q9Y2R2 whole entry): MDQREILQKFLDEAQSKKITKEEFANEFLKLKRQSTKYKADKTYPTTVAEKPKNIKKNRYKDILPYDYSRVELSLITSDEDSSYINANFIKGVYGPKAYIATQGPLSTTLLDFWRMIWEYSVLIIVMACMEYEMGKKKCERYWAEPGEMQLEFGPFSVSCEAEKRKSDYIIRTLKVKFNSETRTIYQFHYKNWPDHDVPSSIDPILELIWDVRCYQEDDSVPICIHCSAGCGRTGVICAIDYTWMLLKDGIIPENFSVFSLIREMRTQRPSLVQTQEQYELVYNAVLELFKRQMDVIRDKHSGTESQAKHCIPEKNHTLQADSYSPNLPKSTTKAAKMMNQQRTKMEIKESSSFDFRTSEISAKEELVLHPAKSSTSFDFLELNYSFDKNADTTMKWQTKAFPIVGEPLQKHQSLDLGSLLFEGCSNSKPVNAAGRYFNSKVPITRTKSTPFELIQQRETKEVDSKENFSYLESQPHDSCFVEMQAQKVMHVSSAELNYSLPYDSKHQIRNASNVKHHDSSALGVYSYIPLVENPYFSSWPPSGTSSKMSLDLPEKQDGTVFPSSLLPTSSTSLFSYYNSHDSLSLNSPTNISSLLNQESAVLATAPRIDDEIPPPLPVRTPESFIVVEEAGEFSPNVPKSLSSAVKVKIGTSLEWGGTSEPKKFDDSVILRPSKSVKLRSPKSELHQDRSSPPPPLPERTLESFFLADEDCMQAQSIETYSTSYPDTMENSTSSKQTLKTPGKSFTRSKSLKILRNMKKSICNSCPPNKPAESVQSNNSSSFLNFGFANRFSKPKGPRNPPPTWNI

T5 sequence (Q9P0U3 whole entry, the tested form may be a part): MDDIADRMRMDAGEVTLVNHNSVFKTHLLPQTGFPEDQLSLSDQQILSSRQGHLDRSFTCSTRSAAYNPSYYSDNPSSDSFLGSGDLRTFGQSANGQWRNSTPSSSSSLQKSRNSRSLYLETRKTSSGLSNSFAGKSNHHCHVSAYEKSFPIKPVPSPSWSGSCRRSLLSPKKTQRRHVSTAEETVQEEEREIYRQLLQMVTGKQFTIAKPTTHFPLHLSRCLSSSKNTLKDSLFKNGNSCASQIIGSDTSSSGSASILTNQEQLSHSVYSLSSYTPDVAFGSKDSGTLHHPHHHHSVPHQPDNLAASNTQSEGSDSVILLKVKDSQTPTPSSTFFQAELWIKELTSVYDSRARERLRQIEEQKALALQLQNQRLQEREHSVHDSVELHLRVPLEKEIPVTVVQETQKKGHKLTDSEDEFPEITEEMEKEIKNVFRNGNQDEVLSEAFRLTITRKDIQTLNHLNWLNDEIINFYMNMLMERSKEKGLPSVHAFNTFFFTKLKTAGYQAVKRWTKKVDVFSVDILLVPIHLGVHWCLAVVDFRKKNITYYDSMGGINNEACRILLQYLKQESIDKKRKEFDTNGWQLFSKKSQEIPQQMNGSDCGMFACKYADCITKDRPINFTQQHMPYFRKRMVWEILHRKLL
T2 sequence (P65502 whole entry): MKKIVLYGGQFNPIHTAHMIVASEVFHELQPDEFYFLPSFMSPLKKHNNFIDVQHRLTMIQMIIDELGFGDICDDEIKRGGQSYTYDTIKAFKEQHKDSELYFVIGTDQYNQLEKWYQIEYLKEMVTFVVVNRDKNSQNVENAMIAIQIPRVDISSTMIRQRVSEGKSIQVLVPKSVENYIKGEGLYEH
T6 sequence (P63165 whole entry): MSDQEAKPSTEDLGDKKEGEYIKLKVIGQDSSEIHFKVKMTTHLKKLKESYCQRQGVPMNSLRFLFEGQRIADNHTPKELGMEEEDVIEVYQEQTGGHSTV
Induced myeloid leukemia cell differentiation protein Mcl-1, sequence (Q07820 whole entry, the tested form may be a part): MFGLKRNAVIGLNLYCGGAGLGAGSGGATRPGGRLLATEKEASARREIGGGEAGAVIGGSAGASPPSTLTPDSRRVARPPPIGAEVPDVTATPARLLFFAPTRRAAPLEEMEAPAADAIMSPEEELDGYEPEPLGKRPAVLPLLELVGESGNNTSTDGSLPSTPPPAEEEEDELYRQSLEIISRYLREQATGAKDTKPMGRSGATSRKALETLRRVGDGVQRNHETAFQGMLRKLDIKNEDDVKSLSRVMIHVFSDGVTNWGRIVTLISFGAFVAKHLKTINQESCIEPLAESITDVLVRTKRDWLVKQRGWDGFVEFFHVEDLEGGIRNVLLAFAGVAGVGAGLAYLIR
Glycogen synthase kinase-3 beta, sequence (P49841 whole entry): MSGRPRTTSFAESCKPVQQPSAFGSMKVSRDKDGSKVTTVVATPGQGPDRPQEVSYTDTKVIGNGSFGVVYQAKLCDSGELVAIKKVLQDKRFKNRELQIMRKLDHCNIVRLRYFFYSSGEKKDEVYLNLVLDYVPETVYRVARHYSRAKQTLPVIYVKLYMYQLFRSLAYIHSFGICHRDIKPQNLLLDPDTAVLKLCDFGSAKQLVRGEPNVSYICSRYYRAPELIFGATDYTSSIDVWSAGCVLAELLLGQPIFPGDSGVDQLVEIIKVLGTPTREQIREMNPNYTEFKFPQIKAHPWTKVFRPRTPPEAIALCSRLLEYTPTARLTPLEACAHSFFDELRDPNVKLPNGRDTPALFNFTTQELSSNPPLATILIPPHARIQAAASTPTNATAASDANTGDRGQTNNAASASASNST
Serine/threonine-protein kinase pim-1, sequence (P11309 whole entry): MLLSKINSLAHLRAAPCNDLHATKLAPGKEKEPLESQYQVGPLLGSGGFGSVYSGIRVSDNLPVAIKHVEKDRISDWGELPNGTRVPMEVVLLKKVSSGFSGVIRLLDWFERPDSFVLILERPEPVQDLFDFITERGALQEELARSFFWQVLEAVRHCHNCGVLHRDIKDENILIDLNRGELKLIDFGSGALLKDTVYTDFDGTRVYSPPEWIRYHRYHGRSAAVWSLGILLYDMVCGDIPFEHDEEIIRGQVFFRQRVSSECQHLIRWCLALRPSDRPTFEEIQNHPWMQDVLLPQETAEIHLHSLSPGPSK
DNA (cytosine-5)-methyltransferase 1, sequence (P26358 whole entry): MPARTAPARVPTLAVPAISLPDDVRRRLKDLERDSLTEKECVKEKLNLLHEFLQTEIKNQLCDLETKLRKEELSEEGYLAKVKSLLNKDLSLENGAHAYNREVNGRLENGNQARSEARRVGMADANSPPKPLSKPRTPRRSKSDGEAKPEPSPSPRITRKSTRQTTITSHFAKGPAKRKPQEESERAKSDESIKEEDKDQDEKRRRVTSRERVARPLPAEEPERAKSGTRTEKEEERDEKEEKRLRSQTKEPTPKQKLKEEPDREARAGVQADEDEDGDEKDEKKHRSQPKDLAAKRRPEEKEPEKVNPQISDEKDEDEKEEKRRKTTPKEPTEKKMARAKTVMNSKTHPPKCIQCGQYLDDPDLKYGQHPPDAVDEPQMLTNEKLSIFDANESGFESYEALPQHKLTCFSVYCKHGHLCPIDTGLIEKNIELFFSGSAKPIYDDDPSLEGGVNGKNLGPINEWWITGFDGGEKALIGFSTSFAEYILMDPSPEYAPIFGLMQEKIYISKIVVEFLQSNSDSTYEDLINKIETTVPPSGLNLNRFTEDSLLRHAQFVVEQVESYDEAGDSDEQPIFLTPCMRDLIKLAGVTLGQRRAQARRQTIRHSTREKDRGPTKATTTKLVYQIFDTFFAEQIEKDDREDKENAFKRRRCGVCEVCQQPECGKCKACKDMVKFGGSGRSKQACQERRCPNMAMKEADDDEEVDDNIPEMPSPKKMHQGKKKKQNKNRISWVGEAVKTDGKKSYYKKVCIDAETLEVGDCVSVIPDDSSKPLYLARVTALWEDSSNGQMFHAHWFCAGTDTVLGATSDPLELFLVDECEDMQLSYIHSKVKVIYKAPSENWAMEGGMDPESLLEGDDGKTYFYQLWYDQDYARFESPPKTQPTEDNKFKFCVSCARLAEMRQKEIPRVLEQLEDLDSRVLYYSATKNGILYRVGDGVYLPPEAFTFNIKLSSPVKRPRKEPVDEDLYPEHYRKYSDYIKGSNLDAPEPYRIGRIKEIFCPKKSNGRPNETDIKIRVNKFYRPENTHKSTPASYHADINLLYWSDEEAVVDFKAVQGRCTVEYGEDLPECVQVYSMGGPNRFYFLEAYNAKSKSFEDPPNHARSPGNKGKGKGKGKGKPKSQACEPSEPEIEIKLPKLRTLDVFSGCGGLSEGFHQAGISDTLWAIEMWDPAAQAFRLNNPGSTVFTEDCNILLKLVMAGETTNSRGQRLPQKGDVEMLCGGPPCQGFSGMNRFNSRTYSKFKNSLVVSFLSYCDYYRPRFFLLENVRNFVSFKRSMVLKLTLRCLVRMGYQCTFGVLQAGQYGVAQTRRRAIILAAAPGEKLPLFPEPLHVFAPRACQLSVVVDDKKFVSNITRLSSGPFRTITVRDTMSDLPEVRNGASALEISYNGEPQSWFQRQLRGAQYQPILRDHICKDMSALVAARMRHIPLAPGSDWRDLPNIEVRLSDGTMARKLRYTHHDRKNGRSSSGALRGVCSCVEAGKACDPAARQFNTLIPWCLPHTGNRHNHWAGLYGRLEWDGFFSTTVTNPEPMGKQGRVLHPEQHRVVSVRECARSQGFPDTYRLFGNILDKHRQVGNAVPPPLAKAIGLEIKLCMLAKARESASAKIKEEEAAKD
Cell division cycle 7-related protein kinase, sequence (O00311 whole entry): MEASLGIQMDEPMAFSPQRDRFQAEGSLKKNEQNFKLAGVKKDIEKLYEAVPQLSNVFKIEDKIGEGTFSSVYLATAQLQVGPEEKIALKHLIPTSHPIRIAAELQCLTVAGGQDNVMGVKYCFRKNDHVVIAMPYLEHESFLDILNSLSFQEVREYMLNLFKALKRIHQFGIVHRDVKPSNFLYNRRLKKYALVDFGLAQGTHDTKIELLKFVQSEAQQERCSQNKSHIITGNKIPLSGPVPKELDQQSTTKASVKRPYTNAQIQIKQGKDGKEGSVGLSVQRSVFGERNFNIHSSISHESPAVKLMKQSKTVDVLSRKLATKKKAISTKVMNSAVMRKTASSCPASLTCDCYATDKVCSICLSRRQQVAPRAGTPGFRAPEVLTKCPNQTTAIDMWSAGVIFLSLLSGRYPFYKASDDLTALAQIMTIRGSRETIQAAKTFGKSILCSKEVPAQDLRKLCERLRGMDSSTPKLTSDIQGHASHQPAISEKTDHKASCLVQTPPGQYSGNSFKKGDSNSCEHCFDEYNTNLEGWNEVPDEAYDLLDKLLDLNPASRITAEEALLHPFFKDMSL
Nuclear receptor subfamily 5 group A member 2, sequence (O00482 whole entry): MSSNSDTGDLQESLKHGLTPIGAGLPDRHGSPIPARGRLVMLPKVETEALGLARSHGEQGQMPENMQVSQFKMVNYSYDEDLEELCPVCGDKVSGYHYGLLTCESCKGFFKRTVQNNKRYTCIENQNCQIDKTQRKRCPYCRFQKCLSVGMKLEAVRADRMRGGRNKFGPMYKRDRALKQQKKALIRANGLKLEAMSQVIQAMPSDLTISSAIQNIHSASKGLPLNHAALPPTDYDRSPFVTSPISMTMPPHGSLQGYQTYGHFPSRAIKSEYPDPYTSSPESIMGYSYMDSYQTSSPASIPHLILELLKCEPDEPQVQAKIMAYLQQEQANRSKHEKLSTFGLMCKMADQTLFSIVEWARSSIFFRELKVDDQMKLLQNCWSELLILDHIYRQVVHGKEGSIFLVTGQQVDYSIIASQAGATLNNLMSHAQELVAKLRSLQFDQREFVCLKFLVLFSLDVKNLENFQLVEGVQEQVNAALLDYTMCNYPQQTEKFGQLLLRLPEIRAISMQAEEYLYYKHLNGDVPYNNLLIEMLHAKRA

Cn1c(N)c(C(=O)COC(=O)c2cc(-c3ccco3)nc3ccccc23)c(=O)n(C)c1=O
IC50 [1]: 2.97 µM (active) | IC50 [2]: 2.52 µM (active) | IC50 [3]: 5.78 µM (active) | IC50 [4]: 6.76 µM (active) | IC50 [5]: 15.9 µM (active)

Cc1ccc(C(=O)NC(=S)NNC(=O)CC#N)cc1
EC50 [6]: > 150 µM (inconclusive) | EC50 [7]: > 38 µM (not active) | EC50 [8]: > 104 µM (inactive)

Cc1ccc(NC(=O)c2ccccc2NS(=O)(=O)c2ccc(Cl)s2)cc1S(=O)(=O)N1CCOCC1
IC50 [9]: 9.12 µM (active) | IC50 [10]: 7.23 µM (active)

C=CCOc1c(Br)cc(/C=C2/N=C(S)N(C(C)=O)C2=O)cc1OC
IC50 [11]: 7.01 µM (active) | IC50 [12]: 8.78 µM (active)

O=C(COC(=O)c1nc(Cl)ccc1Cl)Nc1ccc2[nH]c(O)nc2c1
IC50 [13]: > 66.6 µM (inactive) | IC50 [14]: 20.8 µM (inactive)

CS(=O)(=O)c1cccc(-c2nnc(NC(=O)c3ccc(S(=O)(=O)N4CCCC4)cc3)o2)c1
AC50 [15]: 113 µM (active)

COCC(C)N1CCC(Oc2cccc(C(=O)NCCc3ccccc3)c2)CC1 (stereo unspecified)
IC50 [9]: 7.46 µM (active) | IC50 [10]: 4.22 µM (active)

Cc1cc(OCC(=O)NCc2cccnc2)c2c(C)c(C)c(=O)oc2c1
IC50 [16]: 2.88 µM (active) | IC50 (Steroidogenic factor 1): 2.35 µM (active) | IC50 [17]: 35.9 µM (inactive)

CC(C)(O)CNc1cc(-c2c[nH]c3ncccc23)cc(Cl)n1
Ki [18]: 1 µM (active) | Ki [19]: 2 nM (active) | Ki [20]: 126 nM (active) | Ki [21]: 2.51 µM (active) | Ki [22]: 316 nM (active) | Ki [23]: 316 nM (active) | Ki [24]: 5.01 nM (active)

CN(C)CCCNc1c2c(nc3ccccc13)CCC2
AC50 [25]: 20.8 µM (active) | AC50 [26]: 4.86 µM (active)

COc1cccc2c1[C@@H]1CN(CCCCn3c(=O)[nH]c4c(sc5ncc(-c6ccccc6)nc54)c3=O)C[C@@H]1CO2 [FIDUXOSIN HYDROCHLORIDE]
IC50 [27]: 13.2 µM (active) | IC50 [28]: 24.7 µM (inactive)
